Like-named read-outs stand apart in the source and are kept apart here.
Key:
[1] = tested on: CFPAC-1 pancreatic cancer cells; assay: % cell number over time, SN-38 with PARP inhibitors; type: cell-based; conditions: SN-38 at 2 nM
cancer cells = assay: Active range based on XTC008
[2] = tested on: small cell lung cancer (SCLC), pancreatic cancer and breast cancer cell lines; assay: Growth inhibition, SN-38 with PARP inhibitors; type: cell-based; conditions: for growth inhibition of the cancer cells in combination with SN-38: 2 nM SN-38
[3] = tested on: NCI-H1048 small cell lung cancer cells; assay: % cell number over time, SN-38 with PARP inhibitors; type: cell-based; conditions: SN-38 at 2 nM; NCI-H1048 SCLC cells
PAR = conditions: Table 2B, unit inferred; cited from earlier work
[4] = tested on: DMS-114 small cell lung cancer cells; assay: % cell number over time, SN-38 with PARP inhibitors; type: cell-based; conditions: SN-38 at 2 nM; DMS-114 SCLC cells
BT20 = assay: Cell survival (CellTiter-Glo) after SN-38 and/or PARP inhibitor; type: cell-based; conditions: for IC50: Homo sapiens
Method: (§1) Cells were plated at 1000 cells/well and then incubated for 24 hours. […] The plates were then allowed to incubate for 72 hours period. After the 72 hour incubation period the media was removed and cell viability was determined using the CellTiter-Glo® cell viability assay (Promega, Madison Wis.) according to the product instructions.

HCC38 = assay: as above; type: cell-based; conditions: for IC50: Homo sapiens
Method: as §1

SUM149PT = assay: as above; type: cell-based
Method: as §1

HCC1954 = assay: as above; type: cell-based; conditions: for IC50: Homo sapiens
Method: as §1

SUM159PT = assay: as above; type: cell-based; conditions: for IC50: Homo sapiens, SUM-159-PT
Method: as §1

BT549 = assay: as above; type: cell-based; conditions: BT549, single agent
Method: as §1

[5] = tested on: C33A cervical cancer xenograft; assay: C33A cervical cancer xenograft model
HT-29 = assay: In vitro SN-38 effect on cell line (GI50); type: cell-based; conditions: HT-29, in vitro
human plasma proteins = conditions: cited from earlier work
[6] = tested on: HT-29 colorectal cancer (CRC) tumor xenograft; assay: Tumor SN-38 and tumor response in HT-29 xenograft-bearing mice; type: in vivo
Method: The duration of tumor exposure to the topoisomerase 1 inhibitor SN-38 above a threshold minimum concentration (e.g., 120 nM) correlated with antitumor activity of the liposomal irinotecan. […] For example, FIG. 13B depicts tumor content of SN-38 in multiple murine cervical cancer models. […] Levels of SN-38 of 120 nM were identified as the SN-38 tumor concentration required to yield tumor response.

HCC1806 = assay: Cell survival (CellTiter-Glo) after SN-38 and/or PARP inhibitor; type: cell-based; conditions: Exp. 1, single agent
Method: as §1

SKBR3 = assay: as above; type: cell-based; conditions: Exp. 4, single agent
Method: as §1

HCC1187 = assay: as above; type: cell-based; conditions: for IC50 log10 (μM) / Maximum Kill Percent: HCC1187, single agent
Method: as §1

HCC70 = assay: as above; type: cell-based; conditions: Exp. 2, single agent
Method: as §1

PARG = PARG (Homo sapiens, UniProt Q86W56); conditions: cited from earlier work
Chain of PARG (Q86W56 whole entry, species assumed): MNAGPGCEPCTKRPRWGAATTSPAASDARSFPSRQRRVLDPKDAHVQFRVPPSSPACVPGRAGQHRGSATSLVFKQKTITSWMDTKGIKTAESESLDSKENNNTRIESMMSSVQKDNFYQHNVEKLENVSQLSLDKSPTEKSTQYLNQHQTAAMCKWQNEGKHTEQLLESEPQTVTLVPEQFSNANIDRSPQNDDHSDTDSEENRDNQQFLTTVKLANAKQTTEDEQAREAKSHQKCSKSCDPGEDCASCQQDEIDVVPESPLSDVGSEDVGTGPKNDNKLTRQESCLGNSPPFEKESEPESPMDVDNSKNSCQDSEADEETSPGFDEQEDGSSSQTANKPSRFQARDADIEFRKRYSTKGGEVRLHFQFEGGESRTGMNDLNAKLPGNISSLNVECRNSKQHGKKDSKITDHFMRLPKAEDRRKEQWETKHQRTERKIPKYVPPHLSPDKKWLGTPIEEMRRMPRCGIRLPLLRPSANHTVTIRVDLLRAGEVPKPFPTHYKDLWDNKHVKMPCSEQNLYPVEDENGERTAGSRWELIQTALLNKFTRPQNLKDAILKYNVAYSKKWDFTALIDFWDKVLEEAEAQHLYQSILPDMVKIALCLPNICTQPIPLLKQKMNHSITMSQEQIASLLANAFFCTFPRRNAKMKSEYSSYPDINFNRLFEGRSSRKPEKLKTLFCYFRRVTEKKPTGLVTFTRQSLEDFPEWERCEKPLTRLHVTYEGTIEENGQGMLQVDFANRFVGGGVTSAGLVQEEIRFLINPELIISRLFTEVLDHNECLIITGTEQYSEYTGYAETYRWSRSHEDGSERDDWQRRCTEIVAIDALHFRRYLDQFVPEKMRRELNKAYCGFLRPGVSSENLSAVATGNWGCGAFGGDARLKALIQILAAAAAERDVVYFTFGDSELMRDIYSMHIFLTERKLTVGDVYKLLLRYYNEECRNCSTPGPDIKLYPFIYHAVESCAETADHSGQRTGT

[7] = tested on: MS751 cervical cancer xenograft; assay: MS751 cervical cancer xenograft model; conditions: MM-398 5 mg/kg weekly Day 1; veliparib 50 mg/kg orally Days 4-6; FIG. 7A
SIRT2 = SIRT2 (Homo sapiens, UniProt Q8IXJ6); conditions: cited from earlier work
Chain of SIRT2 (Q8IXJ6 whole entry, species assumed): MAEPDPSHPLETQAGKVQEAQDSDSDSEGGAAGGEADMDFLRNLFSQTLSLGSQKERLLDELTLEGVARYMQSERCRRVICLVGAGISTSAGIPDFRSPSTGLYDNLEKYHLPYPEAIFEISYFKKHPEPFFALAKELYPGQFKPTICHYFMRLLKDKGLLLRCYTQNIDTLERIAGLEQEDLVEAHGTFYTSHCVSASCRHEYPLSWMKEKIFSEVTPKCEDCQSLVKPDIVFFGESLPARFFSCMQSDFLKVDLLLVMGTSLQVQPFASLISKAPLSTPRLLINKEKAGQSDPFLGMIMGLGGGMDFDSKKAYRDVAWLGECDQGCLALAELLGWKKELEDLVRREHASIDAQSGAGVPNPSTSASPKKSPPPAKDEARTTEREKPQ

With `CNCc1ccc(-c2[nH]c3cc(F)cc4c3c2CCNC4=O)cc1` [Rucaparib] the “effect of combination with SN-38” value [1] was “Additive/synergistic effects”, the Estimated tumor range (Estimated tumor range) was less than 6000 nM and the “Active Range based on XTC008” value (cancer cells; (Panc)) was 1 to 100 nM. For the same compound, the “growth inhibition of the cancer cells in combination with SN-38” value [2] was “additive/synergistic growth inhibition”, the “sensitivity of cells to combination with SN-38” value [3] was “very sensitive” and the EC50 (PAR) was 0.0047 µM. For the same compound, the “effect of combination with SN-38” value [4] was “Additive/synergistic effects”, the “Maximum Kill Percent” value (BT20; BT20, Exp. 3, single agent) was 100% and the IC50 (BT20; BT-20, BT20, Exp. 3, single agent, read-out: IC50 log10 (converted)) was 18.6 µM. The “Maximum Kill Percent” value (HCC38; HCC38, Exp. 3, single agent) was 87%, the IC50 (HCC38; HCC38, Exp. 3, single agent, read-out: IC50 log10 (converted)) was 0.851 µM and the “Maximum Kill Percent” value (SUM149PT; Exp. 3, single agent) was 99%. The IC50 (SUM149PT; Homo sapiens, Exp. 3, single agent, read-out: IC50 log10 (converted)) was 47.9 µM, the “Maximum Kill Percent” value (HCC1954; HCC1954, Exp. 3, single agent) was 100% and the IC50 (HCC1954; HCC1954, Exp. 3, single agent, read-out: IC50 log10 (converted)) was 39.8 µM. For the same compound, the IC50 (SUM159PT; SUM159PT, Exp. 3, single agent, read-out: IC50 log10 (converted)) was 0.851 µM, the “Maximum Kill Percent” value (SUM159PT; SUM159PT, Exp. 3, single agent) was 97% and the “Maximum Kill Percent” value (BT549; Exp. 3) was 100%. It also gave an IC50 (BT549; Homo sapiens, BT-549, Exp. 3, read-out: IC50 log10 (converted)) of 56.2 µM.
For `CCc1c2c(nc3ccc(O)cc13)-c1cc3c(c(=O)n1C2)COC(=O)[C@]3(O)CC` [SN-38], the Estimated tumor range (Estimated tumor range; (398)) was 3 to 163 nM, the Estimated tumor range (Estimated tumor range; IRI) was “IRI < 200 nM” and the “differential tissue levels at 24 and 72 hours” value ([5]; liver, spleen, colon, plasma versus tumors) was “cleared faster from the liver, spleen, colon, and plasma, than from tumors”. The GI50 (HT-29) was roughly 0.06 µM, the “Active Range based on XTC008” value (cancer cells) was 1 to 50 nM and the plasma protein binding (human plasma proteins) was “approximately 95%”. The “SN-38 tumor concentration required to yield tumor response” value [6] was 120 nM, the “IC50 log10 (μM)” value (HCC1806) was −2.08 log10 (μM) and the “Maximum Kill Percent” value (HCC1806) was 93%. For the same compound, the “IC50 log10 (μM)” value (BT20; BT20, Exp. 1, single agent) was −0.18 log10 (μM), the “Maximum Kill Percent” value (BT20; BT20, Exp. 1, single agent) was 100% and the “IC50 log10 (μM)” value (BT20; BT20, Exp. 2, single agent) was −0.69 log10 (μM). The “Maximum Kill Percent” value (BT20; BT20, Exp. 2, single agent) was 100%, the “IC50 log10 (μM)” value (BT20; BT20, Exp. 3, single agent) was −0.37 log10 (μM) and the “Maximum Kill Percent” value (BT20; BT20, Exp. 3, single agent) was 100%. The “IC50 log10 (μM)” value (BT20; BT20, Exp. 4, single agent) was −0.24 log10 (μM), the “Maximum Kill Percent” value (BT20; BT20, Exp. 4, single agent) was 100% and the “IC50 log10 (μM)” value (HCC38; HCC38, Exp. 1, single agent) was −2.80 log10 (μM). The “Maximum Kill Percent” value (HCC38; HCC38, Exp. 1, single agent) was 96%, the “IC50 log10 (μM)” value (HCC38; HCC38, Exp. 3, single agent) was −2.89 log10 (μM) and the “Maximum Kill Percent” value (HCC38; HCC38, Exp. 3, single agent) was 92%. The “IC50 log10 (μM)” value (HCC38; HCC38, Exp. 4, single agent) was −2.75 log10 (μM), the “Maximum Kill Percent” value (HCC38; HCC38, Exp. 4, single agent) was 92% and the “IC50 log10 (μM)” value (SUM149PT; Exp. 2, single agent) was 0.24 log10 (μM). For the same compound, the “Maximum Kill Percent” value (SUM149PT; Exp. 2, single agent) was 96%, the “IC50 log10 (μM)” value (SUM149PT; Exp. 3, single agent) was 0.27 log10 (μM) and the “Maximum Kill Percent” value (SUM149PT; Exp. 3, single agent) was 95%. For the same compound, the “IC50 log10 (μM)” value (SKBR3) was −1.38 log10 (μM), the “Maximum Kill Percent” value (SKBR3) was 88% and the “IC50 log10 (μM)” value (HCC1954; HCC1954, Exp. 3, single agent) was −0.97 log10 (μM). The “Maximum Kill Percent” value (HCC1954; HCC1954, Exp. 3, single agent) was 94%, the “IC50 log10 (μM)” value (HCC1954; HCC1954, Exp. 4, single agent) was −0.65 log10 (μM) and the “Maximum Kill Percent” value (HCC1954; HCC1954, Exp. 4, single agent) was 100%. For the same compound, the “IC50 log10 (μM)” value (SUM159PT; SUM159PT, Exp. 1, single agent) was −2.35 log10 (μM), the “Maximum Kill Percent” value (SUM159PT; SUM159PT, Exp. 1, single agent) was 97% and the “IC50 log10 (μM)” value (SUM159PT; SUM159PT, Exp. 2, single agent) was −2.39 log10 (μM). The “Maximum Kill Percent” value (SUM159PT; SUM159PT, Exp. 2, single agent) was 97%, the “IC50 log10 (μM)” value (SUM159PT; SUM159PT, Exp. 3, single agent) was −2.66 log10 (μM) and the “Maximum Kill Percent” value (SUM159PT; SUM159PT, Exp. 3, single agent) was 99%. For the same compound, the “IC50 log10 (μM)” value (SUM159PT; SUM159PT, Exp. 4, single agent) was −2.33 log10 (μM), the “Maximum Kill Percent” value (SUM159PT; SUM159PT, Exp. 4, single agent) was 96% and the “IC50 log10 (μM)” value (HCC1187; Exp. 1) was −0.68 log10 (μM). For the same compound, the “Maximum Kill Percent” value (HCC1187; Exp. 1) was 90%, the “IC50 log10 (μM)” value (HCC1187; Exp. 2) was −0.64 log10 (μM) and the “Maximum Kill Percent” value (HCC1187; Exp. 2) was 100%. The “IC50 log10 (μM)” value (HCC1187; Exp. 4) was −0.98 log10 (μM), the “Maximum Kill Percent” value (HCC1187; Exp. 4) was 88% and the “IC50 log10 (μM)” value (BT549; Exp. 1) was −0.10 log10 (μM). For the same compound, the “Maximum Kill Percent” value (BT549; Exp. 1) was 95%, the “IC50 log10 (μM)” value (BT549; Exp. 2) was −0.04 log10 (μM) and the “Maximum Kill Percent” value (BT549; Exp. 2) was 93%. The “IC50 log10 (μM)” value (BT549; Exp. 3) was −0.05 log10 (μM), the “Maximum Kill Percent” value (BT549; Exp. 3) was 94% and the “IC50 log10 (μM)” value (HCC70) was −0.07 log10 (μM). For the same compound, the “Maximum Kill Percent” value (HCC70) was 97%.
In the case of `Cn1ncnc1[C@H]1c2n[nH]c(=O)c3cc(F)cc(c23)N[C@@H]1c1ccc(F)cc1` [Talazoparib], the “inhibition of PARG” value (PARG) is given as “does not inhibit”, the EC50 (PAR) is given as 0.0025 µM and the “Maximum Kill Percent” value (BT20; BT20, Exp. 4, single agent) is given as 100%. For the same compound, the IC50 (BT20; BT-20, read-out: IC50 log10 (μM) (converted)) was 28.2 µM, the “Maximum Kill Percent” value (HCC38; HCC38, Exp. 4, single agent) was 92% and the IC50 (HCC38; HCC38, read-out: IC50 log10 (μM) (converted)) was 0.0589 µM. For the same compound, the “Maximum Kill Percent” value (HCC1954; HCC1954, Exp. 4, single agent) was 100%, the IC50 (HCC1954; HCC1954, read-out: IC50 log10 (μM) (converted)) was 4370 µM and the IC50 (SUM159PT; read-out: IC50 log10 (μM) (converted)) was 0.0933 µM. The “Maximum Kill Percent” value (SUM159PT; SUM159PT, Exp. 4, single agent) was 94% and the IC50 (HCC1187; Homo sapiens, HCC1187, read-out: IC50 log10 (μM) (converted)) was 191 µM.
In the case of `C[C@]1(c2nc3c(C(N)=O)cccc3[nH]2)CCCN1` [Veliparib], the “effect of combination with SN-38” value [1] is reported as “Additive/synergistic effects”, the Estimated tumor range (Estimated tumor range) is reported as greater than 2000 nM and the “efficacy (tumor growth)” value ([5]; MM-398 2 mg/kg weekly Day 1, veliparib 50 mg/kg orally Days 4-6, FIG. 7B) is reported as “neither MM-398 or veliparib were efficacious as single agents”. For the same compound, the “Active Range based on XTC008” value (cancer cells) was 1000 to 10000 nM, the “growth inhibition of the cancer cells in combination with SN-38” value [2] was “additive/synergistic growth inhibition” and the “potency in the combination with SN-38” value ([2]; compared with olaparib and rucaparib) was “slightly less potent in the combination with SN-38 than olaparib and rucaparib”. The EC50 (PAR) was 0.0059 µM, the “efficacy (tumor growth)” value [7] was “not efficacious” and the “effect of combination with SN-38” value [4] was “Additive/synergistic effects”. The “activity on SIRT2” value (SIRT2) was “inactive”.

From US11844795B2, “Combination therapy for cancer treatment” (Ipsen Biopharm Ltd., priority 2015, dated 2023)
